One data set deals with CH01 UCA. The experiment in a line: SPR binding to unmutated ancestor of CH01. The arrangement: species or system human. As to conditions: for SPR binding to CH01 UA: Example 1. How it is done: (§1) Only the V1/V2 mAb CH58 bound to the glycan-deficient (aglycone) peptide (FIG. 9A). V1/V2 bNAbs ([…], CH01) bound weakly to V1/V2 GlcNAc2 peptide (FIG. 9B). In contrast, both bNAbs PG9 and CH01 bound avidly to the glycopeptides, V1/V2 Man3GlcNAc2 and V1/V2 Man5GlcNAc2 (FIGS. 9C and 9D). CH58 bound weakly to both glycopeptides. Each of the mAbs was captured on a human Fc specific IgG directly immobilized on a BIAcore CM5 sensor chip. Each of the V1/V2 peptides (3 min at 50 uL/min) was injected over the mAb captured surface and SPR binding was monitored on a BIAcore 3000 instrument. Non-specific binding of peptides was subtracted following measurement of signal on a surface with a control ant-RSV mab Synagis.
(§2) The binding Kd (disassociation constant) of the UAs ranges from about 0.15 to 0.2 μM.
(§3) V1V2 glycopeptide binding Kd and rate constant measurements were carried out on BIAcore 3000 instruments as described earlier (Alam et al, Immunol. 178(7):4424-4435 (2007), Alam et al, J. Virol. 82(1):115-125 (2008)). Anti-human IgG Fc antibody (Sigma Chemicals) was immobilized on either a CM3 or CM5 (CM3 for kinetics and Kd determination) sensor chip (to minimize non-specific binding of peptides to chip matrix) to about 5000 Resonance Unit (RU) and each antibody was captured to about 100-200 RU on individual flow cells, in addition to one flow cell with the control Synagis mAb on the same sensor chip. Non-specific binding of V1V2 glycopeptide was double-referenced by substracting the control surface and blank buffer flow for each mAb-V1V2 glycopeptide binding interaction. […] SPR curve fitting analysis was performed using global fit of multiple titrations to the 1:1 Langmuir model. All data analysis was performed using the BIAevaluation 4.1 analysis software (GE Healthcare).
(In general: SPR reads the build-up and loss of mass on a sensor chip optically.)

The subject of the next data set is CH58 UCA. Briefly: SPR binding to unmutated ancestor of CH58. Set-up: species or system human. As to conditions: Example 1. How it is done: as §1, §3
Another data set relates to V2 mAb CH58. Briefly: SPR binding of V1V2 peptides/glycopeptides to captured V2 mAb CH58. The arrangement: species or system human.
In a further data set the test system is BnAb CH01. Briefly: SPR binding of V1V2 peptides/glycopeptides to captured mAb CH01. The arrangement: species or system human.
In a further data set the test system is 697D. Briefly: SPR binding to conformational V2 mAb 697D. As to conditions: Example 1.
Data set [1] is described as follows: Aqueous solubility in phosphate buffer. Type of data set: physicochemical.
The test system of a further data set is BnAb PG9. Type of data set: binding, human.
The test system of the next data set is PG9 UCA. The experiment in a line: SPR binding to unmutated ancestor of PG9. Set-up: species or system human. The following applies: for SPR binding to PG9 UA: Example 1. How it is done: as §1, §2, §3
In a further data set the test system is V2 mAb CH59. Briefly: SPR binding of V1V2 peptides to captured V2 mAb CH59. Set-up: species or system human. As to conditions: Example 6; peptide oxidized by solubilization in DMSO, 50 ug/mL. The source says:
FIGS. 42A-42D. Selective binding of V1V2 BnAbs to mannose derivatized V1V2 glycopeptides but not to aglycone or GlcNAc2 V1V2 peptides. SPR curves showing preferential binding of PG9 and CH01 BnAbs to Man5—(FIG. 42A) and Man3—(FIG. 42B) GlcNAc2 V1V2 glycopeptides but not to GlcNAc2 (FIG. 42C) and aglycone (FIG. 42D) peptides. By contrast, V2 mAbs CH58 and CH59 bound to both aglycone ([…]) and GlcNAc2 (FIG. 42D) V1V2 peptides. Each V1V2 peptide was oxidized by solubilization in DMSO and injected over the indicated MAb at 50 ug/mL. Data shown is after reference subtraction of non-specific signal measured over the control mAb (Synagis). Binding data are representative of at least three experiments for Man5 and Man3 V1V2 peptides and two experiments for GlcNAc2 and aglycone V1V2.
V1V2 glycopeptide binding Kd and rate constant measurements were carried out on BIAcore 3000 instruments as described earlier (Alam et al, Immunol. 178(7):4424-4435 (2007), Alam et al, J. Virol. 82(1):115-125 (2008)). Anti-human IgG Fc antibody (Sigma Chemicals) was immobilized on either a CM3 or CM5 (CM3 for kinetics and Kd determination) sensor chip (to minimize non-specific binding of peptides to chip matrix) to about 5000 Resonance Unit (RU) and each antibody was captured to about 100-200 RU on individual flow cells, in addition to one flow cell with the control Synagis mAb on the same sensor chip. […]

[2] abbreviates: listed as V1V2 aglycone peptide.
Setting [3] is: Example 6, peptide solubilized/oxidized in DMSO, 50 μg/mL.

Each structure is given as a SMILES string. Where two headings read alike, the source gives them in different places. Where a SMILES comes first, the peptide text is derived from it. [ ]: non-standard residue; d: D form. ξ: configuration not given here. Orn(CH(NH2)2) = NC(N)NCCC[C@H](N)C(=O)O; Ile(3ξ) = CCC(C)[C@H](N)C(=O)O; Thr(3ξ) = CC(O)[C@H](N)C(=O)O

Procedure for BnAb PG9: V1V2 glycopeptide binding Kd and rate constant measurements were carried out on a BIAcore 3000 instrument using an anti-human Ig Fc capture assay as described earlier (Alam, S. M.; McAdams, M.; Boren, D.; Rak, M.; Scearce, R. M.; Gao, F.; Camacho, Z. T.; Gewirth, D.; Kelsoe, G.; Chen, P.; Haynes, B. F. J. Immunol. 2007, 178, 4424-4435.). Anti-human IgG Fc antibody (Sigma Chemicals) was immobilized on a CM5 sensor chip to about 10000 response units (RU), and each antibody was captured to about 300 RU. Anti-RSV Synagis mAb was captured on the same sensor chip as a control surface. Non-specific binding and drift in signal was double referenced by subtracting binding to the control surface and blank buffer flow for each of the peptide binding interactions. All curve-fitting analyses were performed using global fit of multiple titrations to the 1:1 Langmuir model. All data analysis was performed using the BIAevaluation 4.1 analysis software (GE Healthcare).

As for `CCC(C)[C@H](NC(=O)[C@@H]1CCCN1C(=O)[C@@H](NC(=O)[C@@H](NC(=O)[C@H](CC(=O)O)NC(=O)[C@H](CC(C)C)NC(=O)[C@H](CCCCN)NC(=O)[C@H](Cc1ccc(O)cc1)NC(=O)[C@H](Cc1ccccc1)NC(=O)[C@H](CC(C)C)NC(=O)[C@H](C)NC(=O)[C@H](Cc1cnc[nH]1)NC(=O)[C@@H](NC(=O)[C@H](CCCCN)NC(=O)[C@H](CCC(N)=O)NC(=O)[C@H](CCCCN)NC(=O)[C@H](CCCCN)NC(=O)[C@H](CC(=O)O)NC(=O)[C@H](CCCNC(=N)N)NC(=O)[C@H](CC(C)C)NC(=O)[C@H](CCC(=O)O)NC(=O)[C@@H](NC(=O)[C@@H](NC(=O)[C@H](CCSC)NC(=O)[C@H](CC(N)=O)NC(=O)[C@H](Cc1ccccc1)NC(=O)[C@H](CO)NC(=O)[C@H](CS)NC(=O)[C@H](CC(N)=O)NC(=O)[C@H](CCCNC(N)N)NC(=O)[C@@H](NC(=O)[C@H](CCC(=O)O)NC(=O)[C@H](CC(=O)O)NC(=O)[C@@H](NC(=O)[C@@H](NC(C)=O)C(C)CC)C(C)O)C(C)C)C(C)O)C(C)O)C(C)C)C(C)CC)C(C)C)C(N)=O` (some centres unmarked) [Aglycone V1V2] (Ac-[Ile(3ξ)][Thr(3ξ)]DEV[Orn(CH(NH2)2)]NCSFNM[Thr(3ξ)][Thr(3ξ)]ELRDKKQKVHALFYKLD[Ile(3ξ)]VP[Ile(3ξ)]-NH2), the “SPR binding to CH01 UA” value in the data set with CH01 UCA is reported as “not to the aglycone peptide”; with CH01 UCA (setting [2]), “no binding”. Further, the “SPR binding to CH01 UCA” value in the data set on CH01 UCA (Example 6) is “neither UCAs bound”. Also, the “SPR binding to CH58 UA” value with CH58 UCA is recorded as “no binding”. Also, the “SPR binding to CH58” value is reported as “bound” in the data set with V2 mAb CH58 (Example 1, antigen injected over captured mAb) and “retained” in the data set with V2 mAb CH58 (Example 6, peptide solubilized/oxidized in DMSO, 1-50 μg/mL). In addition, the “SPR binding to CH01” value in the data set on BnAb CH01 (Example 1, peptide injected over captured mAb) is on record as “not to the aglycone peptide”; in the data set with BnAb CH01 (setting [3]), “no binding”. In the data set with 697D, the “SPR binding to 697D” value is “not to the aglycone peptide”. In addition, the aqueous solubility entry in data set [1] is “Poor aqueous solubility”. The “SPR binding to PG9” value in the data set on BnAb PG9 (Example 5, peptides 200 μg/mL, glycans 25 μg/mL over captured PG9) was “not detected”; in the data set on BnAb PG9 (Example 5, peptides 200 μg/mL, glycans 25 μg/mL over captured PG9, listed as V1V2 aglycone), “minimal to no binding”; in the data set with BnAb PG9 (setting [3]) it was “no binding”. Further, the figures for the “SPR binding to PG9 UA” value in the data set on PG9 UCA and in the data set on PG9 UCA (setting [2]) were “not to the aglycone peptide” and “no binding”, respectively. In addition, the “SPR binding to PG9 UCA” value in the data set on PG9 UCA (Example 6) is reported as “neither UCAs bound”. Besides, in the data set on V2 mAb CH59, the “SPR binding to CH59” value was “bound”.
